# Test results from article PMC8158245, “Novel chalcone/aryl carboximidamide hybrids as potent anti-inflammatory via inhibition of prostaglandin E2 and inducible NO synthase activities: design, synthesis, molecular docking studies and ADMET prediction” (Journal of Enzyme Inhibition and Medicinal Chemistry, 2021).
# Several values for one entry are separate records, joined by “and”; a condition that tells them apart may be missing. Equal entries are not always repeated. Where two headings read alike, the source gives them in different places.
# What was measured:
# [1] = MTT cytotoxicity assay on RAW 264.7 cells; type: cell-based; details: mouse; for IC50 at 20 h: with LPS; for IC50: without LPS
# Method: MTT assay was used to assess the cell viability of RAW 264.7 cells cultured in RPMI-1640 complete media. […] Afterwards, 5 µl of MTT solution were added and incubated for further 4 h. Finally, 150 ul of dimethyl sulfoxide (DMSO) were added and the optical density was assessed at 570 nm using an ELISA plate reader.
# [2] = tested on: LPS-induced NO production in RAW 264.7 cells; assay: Griess assay for NO release from LPS-stimulated RAW 264.7 cells; type: cell-based; details: Mus musculus, RAW264.7; for IC50: LPS-induced RAW 264.7 cells; for inhibition at 5 µM: compounds at 5 µM, 2 h before LPS, RAW 264.7 cells, read-out: NO Inhibition rates (%) ± SD
# Method: Equal volumes of Griess reagent and the supernatant, obtained from treated RAW264.7 cells with the compounds 2 h before LPS induction, were mixed for 10 min at room temperature in the dark. The absorbance was measured at 540 nm using ELISA plate reader and the nitrite concentration was calculated from sodium nitrite standard curve. The percentage inhibition (%) is calculated as absorbance at 540 nm of (LPS-compounds)/absorbance at 540 nm of (LPS-control) ×100[47]^,[48].
# iNOS [3] = biological target: T1, iNOS (Mus musculus, UniProt P29477); assay: iNOS enzymatic activity in LPS-induced RAW 264.7 cells; type: cell-based
# T1 construct: endogenous in cells; host or cells: RAW 264.7 cells induced with LPS
# T1 sequence (P29477 1-1144): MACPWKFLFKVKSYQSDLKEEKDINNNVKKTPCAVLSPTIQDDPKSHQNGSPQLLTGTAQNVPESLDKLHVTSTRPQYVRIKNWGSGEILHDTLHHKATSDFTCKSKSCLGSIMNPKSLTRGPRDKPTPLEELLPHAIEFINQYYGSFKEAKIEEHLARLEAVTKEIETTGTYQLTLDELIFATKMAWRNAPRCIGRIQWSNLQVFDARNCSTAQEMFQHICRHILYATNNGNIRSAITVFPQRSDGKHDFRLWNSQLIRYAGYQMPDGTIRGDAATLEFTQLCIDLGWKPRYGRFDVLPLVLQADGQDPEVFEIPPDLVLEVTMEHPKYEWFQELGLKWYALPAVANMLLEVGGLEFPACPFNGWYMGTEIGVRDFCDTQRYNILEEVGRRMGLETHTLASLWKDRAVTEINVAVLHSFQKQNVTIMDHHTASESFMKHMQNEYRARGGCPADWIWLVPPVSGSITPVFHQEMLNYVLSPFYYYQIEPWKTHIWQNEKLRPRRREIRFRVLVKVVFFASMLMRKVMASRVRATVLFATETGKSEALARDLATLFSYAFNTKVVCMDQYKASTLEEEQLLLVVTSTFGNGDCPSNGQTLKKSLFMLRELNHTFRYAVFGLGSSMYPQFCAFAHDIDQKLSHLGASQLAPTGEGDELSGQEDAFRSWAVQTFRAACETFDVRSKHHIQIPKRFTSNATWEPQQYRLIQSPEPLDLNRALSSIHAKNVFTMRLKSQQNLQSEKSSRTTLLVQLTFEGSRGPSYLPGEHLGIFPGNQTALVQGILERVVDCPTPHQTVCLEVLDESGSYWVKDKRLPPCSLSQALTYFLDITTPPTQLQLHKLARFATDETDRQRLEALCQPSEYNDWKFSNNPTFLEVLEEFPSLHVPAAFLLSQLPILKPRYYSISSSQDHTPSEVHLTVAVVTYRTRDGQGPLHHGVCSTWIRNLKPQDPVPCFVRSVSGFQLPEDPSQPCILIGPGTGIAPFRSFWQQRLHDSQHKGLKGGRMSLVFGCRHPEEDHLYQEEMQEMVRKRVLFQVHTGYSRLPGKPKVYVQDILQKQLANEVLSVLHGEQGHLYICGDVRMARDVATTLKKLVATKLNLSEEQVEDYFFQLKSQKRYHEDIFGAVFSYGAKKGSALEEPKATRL
# Method: Then, the NOS assay reaction solution (100 µl/well) was added and incubated for an extra 2 h at 37 °C. The fluorescence with excitation wavelength at 485 nm and emission wavelength at 528 nm was measured using a fluorescent microplate reader.
# [4] = tested on: PGE2 production in RAW 264.7 cells; assay: PGE2 concentration by ELISA in LPS-treated RAW 264.7 cells; type: cell-based; details: Mus musculus, RAW264.7; LPS-induced RAW 264.7 cells
# Method: After seeding and incubation of RAW 264.7 cells for 24 h, then the cells were treated with the compounds (4c, 4d, 6a, 6c, 6d and 6e) at different concentrations and with LPS (1 µg/ml) for another 24 h. The concentration of prostaglandin E2 (PGE2) was measured in the culture media using ELISA kit (R&D Systems, Minneapolis, MN)[50].
# bovine COX-1 = biological target: T2, bovine COX-1 (Ovis aries, UniProt P05979); assay: In vitro COX-1 inhibition assay (Cayman kit); type: biochemical
# T2 construct: purchased Cayman Chemical 560101
# T2 sequence (P05979 25-600): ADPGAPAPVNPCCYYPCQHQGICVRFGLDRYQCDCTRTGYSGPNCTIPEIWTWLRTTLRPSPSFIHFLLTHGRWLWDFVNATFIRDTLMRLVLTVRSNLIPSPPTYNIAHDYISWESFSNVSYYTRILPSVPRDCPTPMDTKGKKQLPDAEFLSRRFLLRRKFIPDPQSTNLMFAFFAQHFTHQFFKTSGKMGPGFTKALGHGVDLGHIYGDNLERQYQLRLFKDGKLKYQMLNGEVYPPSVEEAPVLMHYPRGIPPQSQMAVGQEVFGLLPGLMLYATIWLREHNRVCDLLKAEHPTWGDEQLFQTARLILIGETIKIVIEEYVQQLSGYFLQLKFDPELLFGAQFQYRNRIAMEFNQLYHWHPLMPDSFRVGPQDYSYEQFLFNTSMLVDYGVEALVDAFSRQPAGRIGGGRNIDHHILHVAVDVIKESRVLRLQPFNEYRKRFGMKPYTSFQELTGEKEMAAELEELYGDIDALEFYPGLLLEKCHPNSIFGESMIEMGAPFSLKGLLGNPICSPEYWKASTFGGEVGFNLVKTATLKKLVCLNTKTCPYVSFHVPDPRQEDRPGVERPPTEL
# COX-2 [5] = assay: In vitro COX-2 inhibition assay (Cayman kit); type: biochemical, bovine; details: selectivity index from COX 1 and COX 2 IC50
# [6] = tested on: carrageenan-induced paw edoema; assay: Carrageenan-induced rat paw edoema; type: in vivo, Wistar albino rats; details: for % of edoema inhibition (% mean ± SEM), 1 h / % of edoema inhibition (% mean ± SEM), 2 h / % of edoema inhibition (% mean ± SEM), 3 h / % of edoema inhibition (% mean ± SEM), 4 h: rat, 50 mg/kg oral; for % of edoema inhibition (% mean ± SEM), 1 h: 1 h after carrageenan; for % of edoema inhibition (% mean ± SEM), 2 h: 2 h after carrageenan; for % of edoema inhibition (% mean ± SEM), 3 h: 3 h after carrageenan; for % of edoema inhibition (% mean ± SEM), 4 h: 4 h after carrageenan
# Method: The anti-inflammatory activity of the inspiring active compounds in vitro (4c, 4d, 6a, 6c, 6d and 6e) were further estimated in vivo using the carrageenan-induced paw edoema test. […] The paw thickness was assessed using Vernier calliper after carrageenan injection for 1,2, 3 and 4 h. Wistar albino rats (males weighing 120–140 g, six rats per group) were grouped as follows: Group 1 (Control) rats were received the vehicle. […] The percentage inhibition of edoema thickness was calculated at each time interval in comparison to the control group.
# COX-2 [7] = tested on: COX-2; set-up: method as in PMID 30878890; details: cited from earlier work; for IC50: Figure 1
# 15-LOX = tested on: 15-LOX; set-up: method as in PMID 30878890; details: Figure 1; cited from earlier work
# [8] = tested on: LPS-induced NO production; details: cited from earlier work
# iNOS [9] = biological target: T1, iNOS; details: cited from earlier work
# PGE2 = details: cited from earlier work
# [10] = four hours after carrageenan injection
SMILES,IC50 at 20 h [1],IC50 [1],IC50 [2],inhibition at 5 µM [2],IC50 (iNOS [3]),IC50 [4],IC50 (bovine COX-1),SI (COX-2 [5]),"% of edoema inhibition (% mean ± SEM), 1 h [6]","% of edoema inhibition (% mean ± SEM), 2 h [6]",also measured
"COc1ccc(C(=O)/C=C/c2ccc(OCC(=O)O/N=C(\N)c3ccccc3)cc2)cc1 [Compound 6a, N’-(2-{4-[(1E)-3-(4-Methoxyphenyl)-3-oxoprop-1-en-1-yl]phenoxy}acetoxy) benzenecarboximidamide]",> 80 µM,> 80 µM,13.6 µM,55.5 ± 2.4%,6.32 µM,0.0481 µM,20.9 ± 1.09 µM,19,14.36 ± 3.11%,24.33 ± 2.26%,"% of edoema inhibition (% mean ± SEM), 3 h ([6]; 50 mg/kg): 45.83% and 45.83 ± 2.74%; % of edoema inhibition (% mean ± SEM), 4 h [6]: 55.74 ± 2.59%; melting point: 172 to 173 °C"
"COc1ccc(C(=O)/C=C/c2ccc(OCC(=O)O/N=C(\N)c3ccc(OC)c(OC)c3)cc2)cc1 [Compound 6d, N’-(2-{4-[(1E)-3-(4-Methoxyphenyl)-3-oxoprop-2-en-1-yl]phenoxy}acetoxy) -3,4-dimethoxybenzenecarboximidamide]",> 80 µM,> 80 µM,4.36 µM,78.2 ± 3.4%,1.91 µM,0.0212 µM,17.8 ± 0.93 µM,0.17,13.25 ± 2.04%,38.43 ± 3.62%,"anti-inflammatory activity relative to celecoxib [6, 10]: ~7 fold; anti-inflammatory activity relative to indomethacin [6, 10]: ~1.5 fold; % of edoema inhibition (% mean ± SEM), 3 h ([6]; 50 mg/kg): 65.31% and 65.31 ± 2.64%; % of edoema inhibition (% mean ± SEM), 4 h ([6]; 50 mg/kg): 78.51% and 78.53% and 78.53 ± 3.28%"
"COc1ccc(C(=O)/C=C/c2ccc(OCC(=O)O/N=C(\N)c3ccc([N+](=O)[O-])cc3)cc2)cc1 [Compound 6e, N’-(2-{4-[(1E)-3-(4-Methoxyphenyl)-3-oxoprop-2-en-1-yl]phenoxy}acetoxy)-4-nitrobenzenecarboximidamide]",> 80 µM,> 80 µM,15.8 µM,57.9 ± 1.3%,7.15 µM,0.0451 µM,12.7 ± 0.66 µM,7.43,10.23 ± 3.17%,19.34 ± 2.45%,"% of edoema inhibition (% mean ± SEM), 4 h [6]: 33.21 ± 3.15%; melting point: 193 to 194 °C"
COc1ccc2cc(C(C)C(=O)O/N=C(\N)c3ccc(Cl)cc3)ccc2c1 (centres unmarked) [IV],–,–,–,–,–,–,–,–,–,–,IC50 (COX-2 [7]): 7.15 nM; IC50 (15-LOX): 1.77 nM
COc1ccc2c(c1)c(CC(=O)O/N=C(\N)c1ccc(OC)c(OC)c1)c(C)n2C(=O)c1ccc(Cl)cc1 [VII],–,–,–,–,–,–,–,–,–,–,"IC50 ([8]; Figure 1, read-out: NO IC50): 6.53 µM; IC50 (iNOS [9]; Figure 1, read-out: iNOS IC50): 3.26 µM; IC50 (PGE2): 0.0345 µM"
COc1ccc2c(c1)c(CC(=O)O/N=C(\N)c1ccccc1)c(C)n2C(=O)c1ccc(Cl)cc1 [VI],–,–,–,–,–,–,–,–,–,–,"IC50 ([8]; as printed in the introduction, read-out: LPS-induced NO production IC50): 10.7 µM; IC50 (iNOS [9]; as printed in the introduction, read-out: iNOS activity IC50): 2.31 µM; IC50 (PGE2): 0.029 µM"
COc1ccc2cc(C(C)C(=O)O/N=C(\N)c3ccc(OC)c(OC)c3)ccc2c1 (centres unmarked) [V],–,–,–,–,–,–,–,–,–,–,IC50 (COX-2 [7]): 6.4 nM; COX-2 inhibitory potency relative to celecoxib (COX-2 [7]): approximately 6.6 folds; IC50 (15-LOX): 2.07 nM
